The values below come from ChEMBL document CHEMBL1133205, “Synthesis and biological properties of new glycosidic cationic lipids for DNA delivery” (2000).

Active and inactive are the calls of the source. The calls are words filed in the database; no cut-off is given here.

Test [1] relates to HeLa. As to the kind of experiment: Transfection efficiency of compound in delivering a plasmid bearing the sequence of luciferase gene under the dependence of human cytomegalo virus promoter into HeLa cells was evaluated; Inactive. Format: functional, cell-based.
The subject of test [2] is HeLa. As to the kind of experiment: Transfection efficiency of compound in delivering a plasmid bearing the sequence of luciferase gene under the dependence of human cytomegalo virus promoter into HeLa cells was evaluated; Active. Type of test: functional, cell-based.
Test [3] concerns HeLa. As to the kind of experiment: Transfection efficiency of compound in delivering a plasmid bearing the sequence of luciferase gene as ratio of nM of vector/ug of DNA in HeLa cells. Type of test: functional, Homo sapiens.
Another test concerns NIH3T3. As to the kind of experiment: Transfection efficiency of compound in delivering a plasmid bearing the sequence of luciferase gene as ratio of nM of vector/ug of DNA in NIH3T3 cells. Type of test: functional, Mus musculus.

For `CCCCCCCCCCCCCCCCCCN(CCCCCCCCCCCCCCCCCC)C(=O)CCC(=O)OC[C@H]1O[C@H](OC)[C@H](OC(=O)CN)[C@@H](OC(=O)CN)[C@H]1OC(=O)CN`, in the test on HeLa [1], the result was inactive.
As for `CCCCCCCCCCCCCCCCCCN(CCCCCCCCCCCCCCCCCC)C(=O)c1ccccc1C(=O)OC[C@H]1O[C@H](OC)[C@H](OCCN)[C@@H](OCCN)[C@H]1OCCN`, in the test with HeLa [2], the outcome was Active. Besides, the Activity was 8 (nM of vector) (ug of DNA)-1 in the test with HeLa [3] and 12 (nM of vector) (ug of DNA)-1 with NIH3T3.
Take `CCCCCCCCCCCCCCCCCCN(CCCCCCCCCCCCCCCCCC)C(=O)c1ccccc1C(=O)OC[C@H]1O[C@H](OC)[C@H](OC(=O)CN)[C@@H](OC(=O)CN)[C@H]1OC(=O)CN`: the outcome with HeLa [1] was inactive.
In the case of `CCCCCCCCCCCCCCCCCCN(CCCCCCCCCCCCCCCCCC)C(=O)CCC(=O)OC[C@H]1O[C@H](OC)[C@H](OCCN)[C@@H](OCCN)[C@H]1OCCN`, the result in the test with HeLa [2] was Active. Further, the Activity is reported as 8 (nM of vector) (ug of DNA)-1 in the test with HeLa [3] and 12 (nM of vector) (ug of DNA)-1 with NIH3T3.
